Measured values as given in paper PMC4266452, “Prediction of Thorough QT study results using action potential simulations based on ion channel screens” (Journal of Pharmacological and Toxicological Methods, 2014).
Where “and” joins values, the source holds several entries; their conditions need not be identical. Identical values can stand only once. Like-named read-outs stand apart in the source and are kept apart here.

How the values were obtained:
Kv4.3/KChIP2.2 = molecular target: T1, Kv4.3/KChIP2.2 (Homo sapiens, UniProt Q9UK17); test: IonWorks Quattro Kv4.3/KChIP2.2 screen (AstraZeneca, Q); type: cell-based
T1 sequence (Q9UK17 1-655): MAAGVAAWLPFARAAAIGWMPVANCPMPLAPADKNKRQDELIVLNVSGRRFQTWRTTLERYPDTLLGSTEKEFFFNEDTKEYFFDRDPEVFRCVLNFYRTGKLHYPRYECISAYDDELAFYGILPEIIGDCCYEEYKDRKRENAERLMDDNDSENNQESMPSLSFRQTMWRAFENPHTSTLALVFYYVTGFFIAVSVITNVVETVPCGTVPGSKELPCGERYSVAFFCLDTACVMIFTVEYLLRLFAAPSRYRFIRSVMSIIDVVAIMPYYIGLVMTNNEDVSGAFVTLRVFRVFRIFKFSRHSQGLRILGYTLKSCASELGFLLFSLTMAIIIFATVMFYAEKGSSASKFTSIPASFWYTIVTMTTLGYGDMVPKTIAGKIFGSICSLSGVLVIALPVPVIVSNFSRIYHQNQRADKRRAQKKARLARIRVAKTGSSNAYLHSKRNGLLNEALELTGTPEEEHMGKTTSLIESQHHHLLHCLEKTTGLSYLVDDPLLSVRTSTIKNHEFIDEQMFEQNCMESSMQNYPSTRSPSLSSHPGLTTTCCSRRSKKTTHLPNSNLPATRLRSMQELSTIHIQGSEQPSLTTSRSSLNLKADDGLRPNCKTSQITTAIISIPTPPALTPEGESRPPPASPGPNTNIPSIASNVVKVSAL
T1 sequence (Q9NS61 1-270 partner): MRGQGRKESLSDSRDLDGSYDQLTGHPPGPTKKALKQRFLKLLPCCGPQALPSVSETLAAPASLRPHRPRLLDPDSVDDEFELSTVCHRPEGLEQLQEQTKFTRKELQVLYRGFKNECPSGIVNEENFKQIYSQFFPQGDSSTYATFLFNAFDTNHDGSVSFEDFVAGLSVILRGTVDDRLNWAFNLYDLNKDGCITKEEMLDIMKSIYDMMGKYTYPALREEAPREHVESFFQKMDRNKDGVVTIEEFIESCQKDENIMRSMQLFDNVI

[1] = Plasma concentration (Cmax) during the TQT study, total and calculated free; type: in vivo, human
hERG [2] = molecular target: T2, hERG (Homo sapiens, UniProt Q12809); conditions: cited from earlier work
[3] = tested on: QT interval on the body surface ECG; conditions: cited from earlier work
[4] = ref Gintant (2011), cited from earlier work
hERG [5] = molecular target: T2, hERG; test: IonWorks Quattro hERG screen (AstraZeneca, Q)
KCNQ1/MinK [6] = molecular target: T3, KCNQ1/MinK (Homo sapiens, UniProt P51787)
[7] = ref Gintant (2011); cited from earlier work
CaV1.2 [8] = molecular target: T4, CaV1.2 (Homo sapiens, UniProt Q13936); test: IonWorks Quattro CaV1.2 screen (AstraZeneca, Q)
NaV1.5 [9] = molecular target: T5, NaV1.5 (Homo sapiens, UniProt Q14524); test: IonWorks Quattro NaV1.5 screen (AstraZeneca, Q)
KCNQ1/MinK [10] = molecular target: T3, KCNQ1/MinK; test: IonWorks Quattro KCNQ1/MinK screen (AstraZeneca, Q); conditions: −log10 of IC50 in Molar
CaV1.2 [11] = molecular target: T4, CaV1.2; test: IonWorks Barracuda CaV1.2 screen (GSK, B)
NaV1.5 [12] = molecular target: T5, NaV1.5; test: Second IonWorks Quattro NaV1.5 screen (GSK, Q2)
[13] = IonWorks Quattro, −log10 of IC50 in Molar, Hill n = 1, 0.0 = pIC50 ≤ 0 fitted
[14] = Cmax high, calculated from ng/mL and molecular weight
[15] = Cmax high, calculated with PPB and molecular weight
[16] = Cmax low, calculated from ng/mL and molecular weight
[17] = Cmax low, calculated with PPB and molecular weight
[18] = IonWorks Quattro, −log10 of IC50 in Molar, Hill n = 1, […]
[19] = Hill n = 1, 0.0 = pIC50 ≤ 0 fitted
[20] = second independent Quattro screening, −log10 of IC50 in Molar, 0.0 = pIC50 ≤ 0 fitted

SMILES	Kv4.3 pIC50 (Q) (Kv4.3/KChIP2.2; [13])	Free plasma concentration ([1]; Cmax high)	Cmax TOTAL [1, 14]	Cmax FREE ([1]; Cmax high, calculated with PPB)	Cmax FREE [1, 15]	Free plasma concentration ([1]; Cmax low)	Cmax TOTAL [1, 16]	Cmax FREE ([1]; Cmax low, calculated with PPB)	Cmax FREE [1, 17]	Cmax TOTAL ([4]; Cmax high)	Cmax TOTAL ([4]; Cmax low)	PPB (percent plasma binding) [7]	KCNQ1 pIC50 (Q) (KCNQ1/MinK [10]; [19])	CaV1.2 pIC50 (B) (CaV1.2 [11])	CaV1.2 pIC50 (Q) (CaV1.2 [8])	NaV1.5 pIC50 (Q) (NaV1.5 [9]; [13])	other results
Cc1c(O)cccc1C(=O)N[C@@H](CSc1ccccc1)[C@H](O)CN1C[C@H]2CCCC[C@H]2C[C@H]1C(=O)NC(C)(C)C [Nelfinavir]	2.3	80.63 nM	19197.2 nM	45.78 ng/mL	80.6284 nM	61.4 nM	14618.1 nM	34.86 ng/mL	61.3959 nM	10900 ng/mL	8300 ng/mL						hERG pIC50 (M) (hERG [2]): 4.9; upper 90% confidence limit of QTc change ([3]; at every time point, ref Damle et al., J Clin Pharm. (49):291-300. 2009): a) upper 90% confidence limit below 10 msec at every; TQT study outcome in words (COMMENTS) ([3]; ref Gintant (2011)): Damle et al concludes negative TQT study since; relationship between exposure and QTc in words (COMMENTS) ([3]; ref Gintant (2011)): time point and b) PK-PD model slopes were negative; IC50 (hERG [5]): 31.6 mM
COC[C@@H](NC(C)=O)C(=O)NCc1ccccc1 [Lacosamide]		79618.4 nM		19928 ng/mL	79618.4 nM	41311.4 nM		10340 ng/mL	41311.4 nM			6% PPB					KCNQ1 pIC50 (Q) (KCNQ1/MinK [6]): 3.6; CaV1.2 pIC50 (Q) (CaV1.2 [8]; [18]): 4.3
Cc1cn([C@@H]2C[C@@H](O)[C@H](CO)O2)c(=O)[nH]c1=O [Telbivudine]			27246.8 nM	6382.2 ng/mL	26347.7 nM		9082.28 nM	2127.4 ng/mL	8782.56 nM	6600 ng/mL	2200 ng/mL	3.3%	3.6				IC50 (hERG [5]): 5.01 mM; NaV1.5 pIC50 (Q) (NaV1.5 [9]): 2.5
CCN(CC)CCNC(=O)c1c(C)[nH]c(/C=C2\C(=O)Nc3ccc(F)cc32)c1C [Sunitinib]	4.3	7.51 nM	150.207 nM	4.000 ng/mL	7.510 nM					80.000 ng/mL							CaV1.2 pIC50 (B) (CaV1.2 [11]; IonWorks Barracuda, −log10 of IC50 in Molar, Hill n = 1, 0.0 = pIC50 ≤ 0 fitted): 3.7; CaV1.2 pIC50 (Q) (CaV1.2 [8]; [13]): 4.1
CNCC[C@H](Oc1cccc2ccccc12)c1cccs1 [Duloxetine]			1008.69 nM	30 ng/mL	100.869 nM					300 ng/mL		90%		4.6	4.0		Kv4.3 pIC50 (Q) (Kv4.3/KChIP2.2): 4.0; KCNQ1 pIC50 (Q) (KCNQ1/MinK [6]): 5.0; NaV1.5 pIC50 (Q) (NaV1.5 [9]): 5.1; NaV1.5 pIC50 (Q2) (NaV1.5 [12]): 4.8
CS(=O)(=O)CCNCc1ccc(-c2ccc3ncnc(Nc4ccc(OCc5cccc(F)c5)c(Cl)c4)c3c2)o1 [Lapatinib]		55.12 nM	5512.340 nM	32.030 ng/mL	55.123 nM	23.9 nM	2390.459 nM	13.890 ng/mL	23.905 nM	3203.000 ng/mL	1389.000 ng/mL		3.6	1.8	2.7	2.5	
C[C@H]1CN(C[C@H](Cc2ccccc2)C(=O)NCC(=O)O)CC[C@@]1(C)c1cccc(O)c1 [Alvimopan]												70%	4.3			3.6	Cmax FREE ([1]; 12mg Capsule): 2.97 ng/mL and 6.996 nM; Cmax TOTAL ([1]; 12mg Capsule): 23.3199 nM; Free plasma concentration ([1]; 12mg Capsule): 6.996 nM; Cmax FREE ([1]; 24 extrapolate): 5.94 ng/mL and 13.9919 nM; Cmax TOTAL ([1]; 24 extrapolate): 19.8 ng/mL and 46.6398 nM; Free plasma concentration ([1]; 24 extrapolate): 13.99 nM; Cmax TOTAL ([4]; 12mg Capsule): 9.9 ng/mL; IC50 (hERG [5]): 63.1 mM; CaV1.2 pIC50 (Q) (CaV1.2 [8]; [13]): 5.3
Cc1nc2n(c(=O)c1CCN1CCC(c3noc4cc(F)ccc34)CC1)CCCC2O (stereo not drawn) [Paliperidone]	4.2	71.54 nM	264.953 nM	30.51 ng/mL	71.5374 nM	22.16 nM	82.0652 nM	9.45 ng/mL	22.1576 nM	113 ng/mL	35 ng/mL	73% PPB		3.0	3.4	4.6	NaV1.5 pIC50 (Q2) (NaV1.5 [12]; [20]): 3.8
Nc1nnc(-c2cccc(Cl)c2Cl)c(N)n1 [Lamotrigine]		37525.9 nM	37525.9 nM	4324.5 ng/mL	37525.9 nM	28193.2 nM		3249 ng/mL		9610 ng/mL	7220 ng/mL	55% PPB		2.9	2.8	4.0	NaV1.5 pIC50 (Q2) (NaV1.5 [12]; [20]): 4.4
C[C@H](Cc1cc2c(c(C(N)=O)c1)N(CCCO)CC2)NCCOc1ccccc1OCC(F)(F)F [Silodosin]	3.5	14.53 nM	290.598 nM	7.2 ng/mL	14.530 nM	4.288 nM	85.767 nM	2.125 ng/mL	4.288 nM	144 ng/mL	42.5 ng/mL	95% PPB	3.6			4.2	IC50 at 3 min (hERG [5]; human, CHO K1 cells stably transfected with human ERG): 0.0251 mM; CaV1.2 pIC50 (Q) (CaV1.2 [8]; [13]): 3.1
Cc1ccc(O)c([C@H](CCN(C(C)C)C(C)C)c2ccccc2)c1 [Tolterodine]		1.343 nM	36.307 nM	0.703 ng/mL	1.343 nM	0.6434 nM	17.389 nM	0.337 ng/mL	0.643 nM	19.00 ng/mL	9.10 ng/mL	96.30%		4.6			Kv4.3 pIC50 (Q) (Kv4.3/KChIP2.2; [18]): 4.9; KCNQ1 pIC50 (Q) (KCNQ1/MinK [10]; Hill n = 1, […]): 4.1
